Results from US10653779B2, “Formulations with reduced oxidation” (Genentech, Inc., priority 2013, dated 2020).
“Also recorded” adds a separate entry of the source.

Legend:
[1] = Photosensitivity screening: H2O2 formation by antioxidant candidates upon light exposure (Amplex Ultra Red Assay); format: physicochemical
Experimental: As a screening tool, antioxidant candidates were exposed to light for four hours at 250 W/m^2 and the resulting H2O2 formation was quantified by the Amplexassay. Specifically, antioxidants were prepared to 1 mM in 20 mM histidine acetate buffer at pH 5.5. The 1 mM antioxidant solutions were aliquoted into glass vials (2 mL/glass vial) and exposed to four hours of light at 250 W/m^2 in an Atlas SunTest CPS+ Xenon Test Instrument (Chicago, Ill.). Total UV dose was 90 watt-hours/square meter and total visible dose was 0.22 million lux hours over the 4-hour period. Control vials were wrapped in aluminum foil and treated similarly. The amount of hydrogen peroxide generated after exposure to light was measured using the Amplex® Ultra Red Assay (Invitrogen, Carlsbad, Calif.) following the manufacturer's recommended procedure. On addition of horseradish peroxidase (HRP), the dye reacted 1:1 stoichiometrically with H2O2, resulting in the production of fluorescent oxidation product resorufin. In this study, fluorescence readings were obtained using a Spectra Max M2 Micro-plate Reader (Molecular Devices, Sunnyvale, Calif.) with excitation and emission set at 560 nm and 590 nm, respectively. Final H2O2 concentrations were determined using a standard curve ranging from 0 μm to 20 μm. […]

[2] = Cyclic voltammetry (CV) screening of oxidation potentials; format: physicochemical; settings: for Oxidation Potential (anodic peak): glassy carbon working electrode, 0.2 M lithium perchlorate
Experimental: The oxidation/reduction characteristics of the compounds were investigated. Several compounds, including L-Trp and derivatives, were evaluated for the protection of Trp oxidation in proteins using cyclic voltammetry (CV) and rank ordered based on their oxidation potentials (Table 2). Specifically, the candidate antioxidants were dissolved in deionized water and then added to a 0.2 M lithium perchlorate electrolyte solution. […] Solutions were scanned from −0.10 V to +1.50 V at a scan rate of either 100 or 500 mV/sec. The analytical cell was purged for four minutes with nitrogen before scanning of each antioxidant solution. The input was a linear scan of the potential of a working electrode, and the output was measurement of the resulting current. […] Redox reactions were characterized by sharp increases or decreases in current (peaks). The potential at which an oxidation reaction occurred was referred to as the anodic peak potential (or oxidation potential), and the potential at which a reduction occurred was referred to as is the cathodic peak (or reduction) potential.

mAb1 [3] = assay: mAb1 AAPH stress study; Fab/Fc oxidation by RP-HPLC; format: physicochemical, human; settings: antioxidants at 1 mM; for Fab (Trp residue) oxidation of mAb1 after AAPH incubation: 24 hours at 40° C., label mAb1 = no excipient
From the text: (§1) The fragments were reduced with DTT, and then separated and identified via Liquid Chromatography-Mass Spectrometry (LC-MS). […] Comparison of area integrated under the oxidized and native peaks was used to quantify HC Fab and Fc oxidation. […] By using the papain digest RP-HPLC method in the present study it was possible to investigate Trp residue oxidation by quantifying HC Fab oxidation, and Met residue oxidation by quantifying HC Fc oxidation.
% Fab oxidation and % Fc oxidation were calculated as follows: […]
Antioxidants were added at 1 mM. […] After buffer exchange, each solution was prepared for analysis by reverse-phase HPLC as described above.

mAb1 [4] = assay: mAb1 light stress study, 16 hours; Fab/Fc oxidation by RP-HPLC; format: physicochemical, human; settings: for Fab oxidation increase over the control level (mAb1 Ref Mat): label mAb1 = No Excipient
Experimental: as §1
Antioxidants were added at 1 mM. Glass vials containing these formulations were exposed to 250 W/m^2 light in an Atlas SunTest CPS+ Xenon Test Instrument (Chicago, Ill.). Control vials were wrapped in aluminum foil and treated similarly. After light exposure, solutions were prepared for analysis by reverse-phase HPLC as described above.

mAb1 [5] = assay: mAb1 light stress, eight hours, with L-Trp and L-Met; Fab/Fc oxidation by papain digest RP-HPLC; format: physicochemical, human; settings: label mAb1 = No Excipient
Experimental: L-tryptophan (L-Trp), an antioxidant used in protein formulations, has been recently shown to be photosensitive (Igarashi et al., Anal Sci 23(8):943-8 (2007)) and to have the ability to produce H2O2 upon light exposure. […] Control vials were wrapped in aluminum foil and treated similarly. After light exposure, solutions were prepared for analysis by reverse-phase HPLC. […] Following incubation, 900 μL of the solution was combined with 100 μL of 1 M dithiothreitol (DTT) and incubated for another thirty minutes at 37° C. Samples were then run on an Agilent, Inc. 1100/1200 HPLC system (Santa Clara, Calif.) equipped with UV detection at 280 nm in conjunction with a Varian, Inc. Pursuit 3 μm, 2 mm ID×250 mm diphenyl column (Palo Alto, Calif.). Mobile Phase A was 0.1% TFA in water. Mobile Phase B was 0.1% TFA in acetonitrile. The mobile phase gradient increased linearly from 34% B at 0 minutes to 43% B at 50.0 minutes, then to 95% B at 50.1 minutes. The gradient remained at 95% B until 60.1 minutes, and then decreased linearly from 95% B to 34% B between 60.1 and 60.2 minutes. The gradient remained at 34% B until the end of the cycle at 80.2 minutes. The column temperature was 65° C., total flow rate was 0.2 mL/min, and injection volume of each sample was 6 μL. Chromatograms were then integrated for quantification of oxidation.

mAb1 [6] = assay: mAb1 Fenton stress study (H2O2 + Fe); Fab/Fc oxidation by RP-HPLC; format: physicochemical, human; settings: 10 ppm H2O2, 0.2 mM Fe(III), 40° C. for 3 hours, no excipient
Experimental: Antioxidants were added at a final concentration of 1 mM. […] After incubation, each reaction was quenched by addition of 100 mM L-Met and then prepared for analysis by reverse-phase HPLC as described above.
The Fenton reaction, using a mixture of H2O2 and Fe ions, generates oxidation through a metal catalyzed, hydroxyl radical reaction (Prousek et al., Pure and Applied Chemistry 79(12):2325-2338 (2007)). This reaction generated Fab, i.e. tryptophan, oxidation in mAb1. The reaction was also carried out in the presence of select antioxidants that were useful against both AAPH and light induced oxidation as reported above. Data related to the antioxidant properties against Fenton mediated reaction were analyzed using the RP-HPLC assay as described above. The Fenton reaction used 10 ppm of H2O2 and 0.2 mM of Fe(III). The reaction was incubated at 40° C. for 3 hours, quenched with 100 mM L-Met and analyzed using RP-HPLC after papain digest. All samples were the average of three separate vials, and mAb1 control (Ref Mat) was one vial with five independent injections on the HPLC. […] In regards to protection against Fc oxidation, the tested excipients (other than salicylic acid) performed slightly better than L-Trp.

[7] = 16 hours of light at 250 W/m^2, excipient 1 mM
[8] = 1 mM in 20 mM histidine acetate pH 5.5, four hours of light at 250 W/m^2
[9] = 1 mM, 20 mM L-His-acetate pH 5.5, 4 h light, 0.22 million lux hours

Compound | Oxidation Potential (anodic peak) [2] | Fab oxidation increase over the control level (mAb1 Ref Mat) (mAb1 [4]; [7]) | (H2O2 produced by Compound)/(H2O2 produced by L-Trp) [1, 8] | H2O2 production upon light exposure compared to L-Trp (in words) [1, 9] | Fab (Trp residue) oxidation of mAb1 after AAPH incubation (mAb1 [3]) | Effect on light-induced Fab oxidation (in words) (mAb1 [4]; [7]) | also measured
O=C(O)c1ccccc1O [Salicylic Acid] | 1.080 V vs Ag/AgCl | 8 fold | – | – | – | – | (H2O2 produced by Compound)/(H2O2 produced by L-Trp) ([1]; pH 5.5): 0.03; H2O2 production upon light exposure compared to L-Trp (in words) ([1]; pH 5.5): very little H2O2; also recorded: did not produce much H2O2; Oxidation potential relative to L-Trp (in words) ([2]; cyclic voltammetry): higher oxidation potential than L-Trp; Effect on AAPH-induced Fab oxidation (in words) (mAb1 [3]; AAPH 24 hours at 40° C.): almost no effect on Fab oxidation; Fc oxidation under light stress compared to no excipient control (in words) (mAb1 [4]; [7]): more Fc oxidation
mAb1: monoclonal anti-DR5 antibody, drozitumab (CAS number 912628-39-8), human monoclonal IgG1 | – | 3.5 fold | – | – | – | – | Fab oxidation of mAb1 (mAb1 [5]; 5 mg/mL mAb1, 8 h light at 250 W/m^2, L-Trp at 1 mM): 4%; Effect on Fc oxidation of mAb1 (in words) (mAb1 [5]; 8 h light at 250 W/m^2, L-Met 10, 25, 50, 100 mM added to 1 mM L-Trp): only a minor increase in Fc oxidation; Increase in Fc oxidation over the control level (mAb1 [4]; 16 hours of light at 250 W/m^2, no excipient): 40%; Oxidation in the Fab region of mAb1 over the control (in words) (mAb1 [6]): about four times the oxidation
Oc1ccc2[nH]ccc2c1 [5-Hydroxyindole, 5-Hydroxy Indole] | 0.580 V vs Ag/AgCl | – | −0.08 | low levels of H2O2 production | about 2% | reducing Fab oxidation to near control levels | –
N[C@@H](Cc1c[nH]c2ccc(O)cc12)C(=O)O [5-Hydroxy-L-Trp, 5-Hydroxy-Tryptophan] | 0.565 V vs Ag/AgCl | – | 0.09 | – | about 2% | reducing Fab oxidation to near control levels | H2O2 production upon light exposure compared to L-Trp (in words) ([1]; 1 mM, 20 mM L-His-acetate pH 5.5, 4 h light, 0.22 million lux hours, listed as 5-hydroxy-L-tryptophan): about one tenth of the H2O2; also recorded: low levels of H2O2 production
NCCc1c[nH]c2ccc(O)cc12 [Serotonin (5-Hydroxytryptamine), 5-hydroxytryptamine] | 0.600 V vs Ag/AgCl | – | 0.03 | very little H2O2; also recorded: low levels of H2O2 production | about 2% | reducing Fab oxidation to near control levels | –
